The EC50 is the concentration needed to bring the measured effect to its halfway point. For orientation: Tmax means the time at which the peak concentration occurs. As usually defined, the Cmax is the peak of the concentration-time curve. Usually AUC stands for concentration integrated over time. The low end stands for low exposure, the high end for high exposure. The term melting point denotes the temperature of the solid-liquid transition.

The values that follow come from paper PMC9781217, “Discovery of Novel and Selective G-Protein Coupled Receptor 120 (GPR120) Agonists for the Treatment of Type 2 Diabetes Mellitus” (Molecules, 2022).

One series deals with human GPR40 (hGPR40) (Homo sapiens, UniProt O14842). As to the kind of experiment: Calcium flux assay in hGPR40-expressing CHO cells. Background: Calcium flux is commonly read through the fluorescence of an indicator in the cells.
human GPR40 (hGPR40), sequence (O14842 whole entry): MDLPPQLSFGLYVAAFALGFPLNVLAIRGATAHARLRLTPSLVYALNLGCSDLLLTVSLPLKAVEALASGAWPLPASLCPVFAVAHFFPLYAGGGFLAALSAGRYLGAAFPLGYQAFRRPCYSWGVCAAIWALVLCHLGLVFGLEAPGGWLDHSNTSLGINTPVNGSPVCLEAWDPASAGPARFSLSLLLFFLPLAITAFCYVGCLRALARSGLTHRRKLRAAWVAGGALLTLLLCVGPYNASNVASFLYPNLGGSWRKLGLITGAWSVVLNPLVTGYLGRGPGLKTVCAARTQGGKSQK
The target in the next series is T1, human GPR120 (hGPR120) (Homo sapiens, UniProt Q5NUL3).
T1 sequence (Q5NUL3 1-361): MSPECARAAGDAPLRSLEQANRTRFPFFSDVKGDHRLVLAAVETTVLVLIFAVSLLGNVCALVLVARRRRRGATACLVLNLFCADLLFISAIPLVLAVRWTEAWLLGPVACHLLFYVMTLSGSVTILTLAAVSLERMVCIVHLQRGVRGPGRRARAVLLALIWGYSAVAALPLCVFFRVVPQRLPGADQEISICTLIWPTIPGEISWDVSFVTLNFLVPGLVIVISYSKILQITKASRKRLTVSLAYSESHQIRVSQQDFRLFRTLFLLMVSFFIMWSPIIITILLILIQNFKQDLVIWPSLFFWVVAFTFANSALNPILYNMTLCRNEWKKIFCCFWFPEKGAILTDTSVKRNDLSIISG
As to the kind of experiment: Calcium flux assay in hGPR120-transfected CHO cells. The conditions noted are these: for Selectivity: hGPR120 over hGPR40.

Series [1] can be described thus: Pharmacokinetic analysis in C57BL/6 mice. In kind it is in vivo. The conditions noted are these: C57BL/6 mice. On the procedure:
The pharmacokinetic profiles of 10k and 14d were obtained from C57BL/6 mice. […] The pharmacokinetic profiles traces were shown in the Supplementary Materials (Figure S1, see Supporting Materials).
Plasma was collected and precipitated using two volumes of acetonitrile containing an internal standard. This was followed by centrifugation at 15.680 g for 10 min after vortexing for 5 min. The supernatant was diluted with acetonitrile and 10 µL of the supernatant was analyzed by Waters LC-PDA-MS/MS to determine plasma drug levels. Pharmacokinetic parameters were determined using mean data from four mice at each time point. Statistical analysis of the data was performed using the DAS 2.1.1 statistical software program (BioVoice, Shanghai, China).

The mark [2] stands for this setting: read-out: hGPR40 (EC50), calcium flux, hGPR40 CHO cells, mean of three determinations.
Where [3] appears, read: read-out: hGPR120 (EC50), calcium flux, hGPR120 CHO cells, mean of three determinations.

Entries after “also recorded” stand apart in the source; their conditions may differ. Read-outs that look alike come from different tables or passages of the source.

Procedure for human GPR120 (hGPR120): (§1) A calcium flux assay was performed to assess the agonist activity of the test compounds against the hGPR120 (mGPR120) and hGPR40 (mGPR40) receptors. […] The medium in the wells was gently discarded, and the wells were washed with Hank’s balanced salt solution (HBSS; 100 μL per well). […] The cells were then washed thrice in HBSS and allowed to equilibrate for 10 min before conducting the assay. Test compounds dissolved in dimethyl sulfoxide were diluted in HBSS at various concentrations and added to Fluo-4 AM-containing cells, and intracellular Ca^2+ concentrations were measured using FlexStation3 Molecular Devices. The EC50 value of each compound was calculated using GraphPad Prism software (version 5.0; GraphPad Software, San Diego, CA, USA).
Procedure for human GPR40 (hGPR40): as §1

Turning to “4-(4-(((2′,4-difluoro-4′-methoxy-[1,1′-biphenyl]-2-yl)oxy)methyl)-2-fluorophenoxy)butanoic acid [Compound 14l]”, the EC50 was determined as 90800 nM at human GPR40 (hGPR40) (setting [2]) and 136 nM at human GPR120 (hGPR120) (setting [3]). Moreover, the Selectivity at human GPR120 (hGPR120) turned out to be 665.2.

Regarding `Cc1ccc(-c2ccc(F)cc2OCc2ccc(OCCCC(=O)O)c(F)c2)cc1` [Compound 10k, 4-(2-fluoro-4-(((4-fluoro-4′-methyl-[1,1′-biphenyl]-2-yl)oxy)methyl)phenoxy)butanoic acid], the melting point was in the range of 130 to 132 °C. The “metabolic stability in vivo” value in series [1] (pharmacokinetics, in words) is recorded as “higher metabolic stability than TUG-891; also recorded: excellent metabolic stability”. For the same molecule, in series [1] (male, mouse, plasma, po, 10 mg/kg gavage), the Tmax is 30 min. The Cmax in series [1] (male, mouse, plasma, po, 10 mg/kg gavage, 0.5% MC, mean ± SD of four mice) was determined as 2370 ± 335 ng/mL. This molecule registered an AUC in series [1] (male, mouse, plasma, po, 10 mg/kg gavage, mean ± SD of four mice) of 4250 ± 577 ng·h/mL. In addition, in series [1] (male, mouse, plasma, po, 10 mg/kg gavage, mean ± SD of four mice, read-out: t1/2 (converted)), the half-life was 66 ± 18 min. Further, at human GPR40 (hGPR40), the EC50 amounted to 74300 nM. Also, at human GPR120 (hGPR120), the EC50 worked out at 57.6 nM and the Selectivity amounted to 1289.9.

`Cc1ccc(-c2ccc(F)cc2OCc2ccc(OCCCCC(=O)O)cc2)cc1` [Compound 10d, 5-(4-(((4-fluoro-4′-methyl-[1,1′-biphenyl]-2-yl)oxy)methyl)phenoxy)pentanoic acid] had a melting point of 124 to 126 °C. Besides, the EC50 at human GPR40 (hGPR40) stood at 144000 nM. For the same molecule, on human GPR120 (hGPR120), the EC50 turned out to be 103 nM and the Selectivity is on record as 1391.5.

As to `Cc1ccc(-c2ccc(F)cc2OCc2ccc(OCCCC(=O)O)c(F)c2)c(Cl)c1` [Compound 14m, 4-(4-(((2′-chloro-4-fluoro-4′-methyl-[1,1′-biphenyl]-2-yl)oxy)methyl)-2-fluorophenoxy)butanoic acid], the melting point is 105 to 107 °C. In addition, the EC50 on human GPR40 (hGPR40) turned out to be 78600 nM. On human GPR120 (hGPR120), the EC50 is 187 nM and the Selectivity was found to be 419.6.

Regarding `Cc1ccc(-c2ccc(F)cc2OCc2ccc(OCCCC(=O)O)c(F)c2)c(C)c1` [Compound 14i], the EC50 at human GPR40 (hGPR40) is 95100 nM; at human GPR120 (hGPR120), 159 nM. The Selectivity on human GPR120 (hGPR120) turned out to be 600.0.

`O=C(O)CCCOc1ccc(COc2cc(F)ccc2-c2ccccc2F)cc1F` [Compound 14c, 4-(4-(((2′,4-difluoro-[1,1′-biphenyl]-2-yl)oxy)methyl)-2-fluorophenoxy)butanoic acid] gave a melting point of 94 to 96 °C. The EC50 at human GPR120 (hGPR120) amounted to 168 nM.

As for `Cc1ccc(-c2ccc(F)cc2OCc2ccc(OCCCC(=O)O)cc2)cc1` [Compound 10c, 4-(4-(((4-fluoro-4′-methyl-[1,1′-biphenyl]-2-yl)oxy)methyl)phenoxy)butanoic acid], the melting point was 106 to 108 °C. The EC50 on human GPR40 (hGPR40) is 113000 nM. Moreover, on human GPR120 (hGPR120), the concentration for a half-maximal effect (EC50) worked out at 129 nM and the Selectivity is 875.6.

As to `Cc1ccc(-c2ccc(F)cc2OCc2ccc(OCCCCC(=O)O)c(F)c2)cc1` [Compound 10l, 5-(2-fluoro-4-(((4-fluoro-4′-methyl-[1,1′-biphenyl]-2-yl)oxy)methyl)phenoxy)pentanoic acid], the EC50 at human GPR40 (hGPR40) was 94700 nM; on human GPR120 (hGPR120), 96.8 nM.

`Cc1ccc(-c2ccc(F)cc2OCc2ccc(OCC(=O)O)cc2)cc1` [Compound 10a, 2-(4-(((4-fluoro-4′-methyl-[1,1′-biphenyl]-2-yl)oxy)methyl)phenoxy)acetic acid] registered a melting point of 164 to 166 °C. Also, the EC50 on human GPR40 (hGPR40) worked out at 76200 nM. On human GPR120 (hGPR120), the EC50 came out at 92.4 nM and the Selectivity is listed as 824.7.

As to `Cc1ccc(-c2ccc(F)cc2OCc2ccc(OCCCC(=O)O)c(C)c2)cc1` [Compound 10g, 4-(4-(((4-fluoro-4′-methyl-[1,1′-biphenyl]-2-yl)oxy)methyl)-2-methylphenoxy)butanoic acid], at human GPR120 (hGPR120), the EC50 came out at 380 nM.

For the molecule `COc1ccc(-c2ccc(F)cc2OCc2ccc(OCCCC(=O)O)c(F)c2)cc1` [Compound 14e, 4-(2-fluoro-4-(((4-fluoro-4′-methoxy-[1,1′-biphenyl]-2-yl)oxy)methyl)phenoxy)butanoic acid], the melting point lay within 103 to 105 °C. Further, the EC50 at human GPR120 (hGPR120) was 260 nM.

Turning to “4-(2-fluoro-4-(((4-fluoro-3′,5′-dimethyl-[1,1′-biphenyl]-2-yl)oxy)methyl)phenoxy)butanoic acid [Compound 14h]”, at human GPR120 (hGPR120) (setting [3]), the EC50 amounted to 422 nM.

For the molecule `Cc1ccc(-c2ccc(F)cc2OCc2ccc(OCCC(=O)O)cc2)cc1` [Compound 10b, 3-(4-(((4-fluoro-4′-methyl-[1,1′-biphenyl]-2-yl)oxy)methyl)phenoxy)propanoic acid], the melting point lay within 120 to 122 °C. Besides, the EC50 on human GPR120 (hGPR120) worked out at 218 nM.

In the case of `Cc1ccccc1-c1ccc(F)cc1OCc1ccc(OCCCC(=O)O)c(F)c1` [Compound 14a, 4-(2-fluoro-4-(((4-fluoro-2′-methyl-[1,1′-biphenyl]-2-yl)oxy)methyl)phenoxy)butanoic acid], the melting point was 83 to 85 °C. Further, the EC50 on human GPR40 (hGPR40) came out at 68500 nM. For the same molecule, on human GPR120 (hGPR120), the EC50 amounted to 90.4 nM and the Selectivity turned out to be 757.7.

`Cc1ccc(-c2ccc(F)cc2OCc2ccc(OCCC(=O)O)c(F)c2)cc1` [Compound 10j, 3-(2-fluoro-4-(((4-fluoro-4′-methyl-[1,1′-biphenyl]-2-yl)oxy)methyl)phenoxy)propanoic acid]: the EC50 on human GPR40 (hGPR40) was determined as 85500 nM; at human GPR120 (hGPR120), 112 nM.

In turn, `Cc1ccc(-c2ccc(F)cc2OCc2ccc(OCC(=O)O)c(C)c2)cc1` [Compound 10e, 2-(4-(((4-fluoro-4′-methyl-[1,1′-biphenyl]-2-yl)oxy)methyl)-2-methylphenoxy)acetic acid] showed a melting point of 128 to 130 °C. For the same molecule, at human GPR40 (hGPR40), the EC50 turned out to be 141000 nM. At human GPR120 (hGPR120), the EC50 turned out to be 138 nM and the Selectivity stood at 1019.5.

For the molecule `Cc1ccc(-c2ccc(F)cc2OCc2ccc(OCC(=O)O)c(F)c2)cc1` [Compound 10i, 2-(2-fluoro-4-(((4-fluoro-4′-methyl-[1,1′-biphenyl]-2-yl)oxy)methyl)phenoxy)acetic acid], the melting point fell in the range of 90 to 92 °C. The EC50 at human GPR40 (hGPR40) worked out at 87200 nM. On human GPR120 (hGPR120), the EC50 was 77.2 nM and the Selectivity is on record as 1129.5.

`Cc1ccc(-c2ccc(F)cc2OCc2ccc(OCCC(=O)O)c(C)c2)cc1` [Compound 10f, 3-(4-(((4-fluoro-4′-methyl-[1,1′-biphenyl]-2-yl)oxy)methyl)-2-methylphenoxy)propanoic acid]: the melting point is 125 to 127 °C. At human GPR120 (hGPR120), the EC50 was found to be 268 nM.

As to `Cc1ccc(-c2ccc(F)cc2OCc2ccc(OCCCC(=O)O)c(F)c2)c(F)c1` [Compound 14n, 4-(4-(((2′,4-difluoro-4′-methyl-[1,1′-biphenyl]-2-yl)oxy)methyl)-2-fluorophenoxy)butanoic acid], the melting point fell in the range of 92 to 94 °C. The EC50 at human GPR120 (hGPR120) came to 313 nM.

Turning to `Cc1cccc(-c2ccc(F)cc2OCc2ccc(OCCCC(=O)O)c(F)c2)c1` [Compound 14b, 4-(2-fluoro-4-(((4-fluoro-3′-methyl-[1,1′-biphenyl]-2-yl)oxy)methyl)phenoxy)butanoic acid], the EC50 at human GPR40 (hGPR40) turned out to be 93200 nM; on human GPR120 (hGPR120), 82.5 nM.

“4-(2-fluoro-4-(((4-fluoro-2′,4′-dimethyl-[1,1′-biphenyl]-2-yl)oxy)methyl)phenoxy)butanoic acid [Compound 14f]”: the EC50 on human GPR40 (hGPR40) (setting [2]) came out at 103000 nM; at human GPR120 (hGPR120) (setting [3]), 170 nM. For the same molecule, at human GPR120 (hGPR120), the Selectivity is reported as 604.0.

`Cc1ccc(-c2ccc(F)cc2OCc2ccc(OCCCCC(=O)O)c(C)c2)cc1` [Compound 10h, 5-(4-(((4-fluoro-4′-methyl-[1,1′-biphenyl]-2-yl)oxy)methyl)-2-methylphenoxy)pentanoic acid]: the EC50 at human GPR120 (hGPR120) turned out to be 206 nM.
